Test [1] addresses Mitogen-activated protein kinase 1 (Homo sapiens, UniProt P28482). Kind of test: Selectivity interaction (Kinase panel (Z-LYTE Assay)) EUB0001632a MAPK1. Particulars: at 10 µM.
Test [2] concerns the target Histone-lysine N-methyltransferase, H3 lysine-36 specific (Homo sapiens) (UniProt Q96L73). Description: Selectivity interaction (Methyltransferase screen (Scintillation proximity assays)) EUB0000255b NSD1. The note with it: at 1 µM. On the technique in general: In a scintillation proximity assay essentially only radioactivity close to the scintillant gives light.
The target of test [3] is T1, Ephrin type-A receptor 1 (Homo sapiens) (UniProt P21709).
T1 sequence (whole entry): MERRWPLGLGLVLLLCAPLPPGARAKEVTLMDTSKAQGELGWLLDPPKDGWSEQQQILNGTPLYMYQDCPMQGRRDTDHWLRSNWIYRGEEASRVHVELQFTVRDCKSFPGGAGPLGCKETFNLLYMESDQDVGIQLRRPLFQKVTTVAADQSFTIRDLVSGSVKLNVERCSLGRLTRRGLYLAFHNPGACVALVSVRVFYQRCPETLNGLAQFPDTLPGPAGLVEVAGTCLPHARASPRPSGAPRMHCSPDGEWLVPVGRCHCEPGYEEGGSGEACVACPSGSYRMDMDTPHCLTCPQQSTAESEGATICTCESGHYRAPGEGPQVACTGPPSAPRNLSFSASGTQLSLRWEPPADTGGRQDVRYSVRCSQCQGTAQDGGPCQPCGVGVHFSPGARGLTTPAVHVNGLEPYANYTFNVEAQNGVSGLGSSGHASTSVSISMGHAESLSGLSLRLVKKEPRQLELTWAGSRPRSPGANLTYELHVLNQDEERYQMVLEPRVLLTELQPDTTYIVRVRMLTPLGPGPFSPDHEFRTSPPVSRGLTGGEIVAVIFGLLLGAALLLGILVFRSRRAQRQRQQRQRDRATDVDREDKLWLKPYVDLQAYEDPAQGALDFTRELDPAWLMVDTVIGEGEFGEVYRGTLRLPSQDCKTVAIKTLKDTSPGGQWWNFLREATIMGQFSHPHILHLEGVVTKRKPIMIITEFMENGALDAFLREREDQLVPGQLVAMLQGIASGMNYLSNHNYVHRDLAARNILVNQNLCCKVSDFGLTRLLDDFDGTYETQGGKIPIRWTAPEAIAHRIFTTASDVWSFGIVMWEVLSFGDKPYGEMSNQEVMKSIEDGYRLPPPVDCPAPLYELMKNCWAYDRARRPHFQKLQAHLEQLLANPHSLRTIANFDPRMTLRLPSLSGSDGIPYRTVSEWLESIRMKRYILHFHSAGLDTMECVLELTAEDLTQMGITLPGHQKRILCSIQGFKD
Kind of test: Selectivity interaction (KinomeScan (DiscoverX)) EUB0000595a EPHA1. The note with it: at 10 µM.

Test [4] addresses Fibroblast growth factor receptor 4 (Homo sapiens, UniProt P22455). Description: Selectivity interaction (KinomeScan (DiscoverX)) EUB0000666a FGFR4. The note with it: at 10 µM.
The target in test [5] is Serine/threonine-protein kinase PAK 3 (Homo sapiens) (UniProt O75914). Kind of test: Selectivity interaction (KinomeScan (DiscoverX)) EUB0000607a PAK3. Particulars: at 10 µM.
Test [6] addresses Dual specificity mitogen-activated protein kinase kinase 2 (Homo sapiens) (UniProt P36507). Kind of test: Selectivity interaction (Kinase panel (Invitrogen)) EUB0000639a MAP2K2. The note with it: at 200 nM.
In test [7] the target is T2, SNF-related serine/threonine-protein kinase (Homo sapiens) (UniProt Q9NRH2).
T2 sequence (whole entry): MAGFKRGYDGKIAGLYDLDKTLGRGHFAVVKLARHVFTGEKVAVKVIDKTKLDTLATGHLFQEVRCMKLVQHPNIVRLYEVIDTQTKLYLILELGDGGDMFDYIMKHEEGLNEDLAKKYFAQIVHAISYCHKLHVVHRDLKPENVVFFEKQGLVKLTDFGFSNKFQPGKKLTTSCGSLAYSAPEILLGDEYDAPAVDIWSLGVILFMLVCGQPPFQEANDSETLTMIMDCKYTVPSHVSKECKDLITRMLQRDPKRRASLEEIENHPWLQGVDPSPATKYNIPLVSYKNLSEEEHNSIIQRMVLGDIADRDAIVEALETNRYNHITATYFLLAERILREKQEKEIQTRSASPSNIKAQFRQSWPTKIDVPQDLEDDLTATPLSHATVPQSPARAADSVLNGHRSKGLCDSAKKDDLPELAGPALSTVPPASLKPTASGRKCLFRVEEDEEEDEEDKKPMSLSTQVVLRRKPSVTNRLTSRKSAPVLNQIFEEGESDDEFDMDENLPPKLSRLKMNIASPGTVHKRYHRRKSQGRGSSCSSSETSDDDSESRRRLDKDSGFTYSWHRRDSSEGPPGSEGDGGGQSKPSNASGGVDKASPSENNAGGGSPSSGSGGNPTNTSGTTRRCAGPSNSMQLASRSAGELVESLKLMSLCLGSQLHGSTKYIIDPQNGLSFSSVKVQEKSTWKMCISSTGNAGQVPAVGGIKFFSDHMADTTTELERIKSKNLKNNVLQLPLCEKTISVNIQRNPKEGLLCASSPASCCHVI
Description: Selectivity interaction (ActivX KiNativ screen (kinase selectivity in THP-1 cell lysates)) EUB0000639a SNRK. In kind it is subcellular. Particulars: lysate, at 0.01 µM.

Test [8] deals with Mitogen-activated protein kinase 14 (Homo sapiens, UniProt Q16539). Kind of test: Selectivity interaction (Kinase panel (DSF assay)) EUB0001559a MAPK14. (Differential scanning fluorimetry follows unfolding on heating by fluorescence.)
In test [9] the target is RAC-beta serine/threonine-protein kinase (Homo sapiens) (UniProt P31751). Description: Selectivity interaction (KinomeScan (DiscoverX)) EUB0001049a AKT2. The note with it: at 1 µM.
The target in test [10] is Myosin light chain kinase, smooth muscle (Homo sapiens, UniProt Q15746). Description: Selectivity interaction (KinomeScan (DiscoverX)) EUB0001049a MYLK. Particulars: at 1 µM.
Test [11] concerns the target Proto-oncogene tyrosine-protein kinase ROS (Homo sapiens) (UniProt P08922). Kind of test: Selectivity interaction (KinomeScan (DiscoverX)) EUB0000655a ROS1. The note with it: at 10 µM.
Test [12] concerns the target Dual specificity protein kinase CLK3 (Homo sapiens, UniProt P49761). Kind of test: Selectivity interaction (KinomeScan (DiscoverX)) EUB0001079a CLK3. Particulars: at 1 µM.
Test [13] deals with T3, Testis-specific serine/threonine-protein kinase 1 (Homo sapiens) (UniProt Q9BXA7).
T3 sequence (whole entry): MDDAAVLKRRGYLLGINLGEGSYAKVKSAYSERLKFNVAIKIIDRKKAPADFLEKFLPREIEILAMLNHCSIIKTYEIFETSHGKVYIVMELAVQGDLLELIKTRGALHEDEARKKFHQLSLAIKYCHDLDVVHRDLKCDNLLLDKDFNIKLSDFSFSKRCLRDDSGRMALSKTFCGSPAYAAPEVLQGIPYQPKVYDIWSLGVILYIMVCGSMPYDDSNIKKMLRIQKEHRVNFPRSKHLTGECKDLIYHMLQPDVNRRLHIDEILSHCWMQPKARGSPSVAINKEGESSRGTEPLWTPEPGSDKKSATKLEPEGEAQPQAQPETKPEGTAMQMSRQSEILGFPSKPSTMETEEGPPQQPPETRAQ
Kind of test: Selectivity interaction (KinomeScan (DiscoverX)) EUB0000229b TSSK1B. Particulars: at 10 µM.

The record followed here is ChEMBL document CHEMBL5465560, “Selectivity Literature for EUbOPEN Chemogenomic Library” (2024).

Chain of RAC-beta serine/threonine-protein kinase (Homo sapiens) (P31751 whole entry): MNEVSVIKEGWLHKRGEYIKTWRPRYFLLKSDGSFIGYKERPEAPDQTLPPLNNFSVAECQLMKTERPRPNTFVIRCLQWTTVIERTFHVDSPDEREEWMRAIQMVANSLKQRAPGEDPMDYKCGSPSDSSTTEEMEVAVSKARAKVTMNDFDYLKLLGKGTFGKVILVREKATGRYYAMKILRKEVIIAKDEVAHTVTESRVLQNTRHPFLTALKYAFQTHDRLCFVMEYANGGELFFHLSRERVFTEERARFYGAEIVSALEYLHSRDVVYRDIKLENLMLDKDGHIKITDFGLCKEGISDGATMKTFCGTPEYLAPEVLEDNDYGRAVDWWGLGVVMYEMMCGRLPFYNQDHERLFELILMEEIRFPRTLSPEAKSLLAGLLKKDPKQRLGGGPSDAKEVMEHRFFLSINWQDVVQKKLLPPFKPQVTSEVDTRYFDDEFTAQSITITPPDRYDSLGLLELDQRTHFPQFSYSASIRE
Chain of Dual specificity protein kinase CLK3 (P49761 whole entry, looked up): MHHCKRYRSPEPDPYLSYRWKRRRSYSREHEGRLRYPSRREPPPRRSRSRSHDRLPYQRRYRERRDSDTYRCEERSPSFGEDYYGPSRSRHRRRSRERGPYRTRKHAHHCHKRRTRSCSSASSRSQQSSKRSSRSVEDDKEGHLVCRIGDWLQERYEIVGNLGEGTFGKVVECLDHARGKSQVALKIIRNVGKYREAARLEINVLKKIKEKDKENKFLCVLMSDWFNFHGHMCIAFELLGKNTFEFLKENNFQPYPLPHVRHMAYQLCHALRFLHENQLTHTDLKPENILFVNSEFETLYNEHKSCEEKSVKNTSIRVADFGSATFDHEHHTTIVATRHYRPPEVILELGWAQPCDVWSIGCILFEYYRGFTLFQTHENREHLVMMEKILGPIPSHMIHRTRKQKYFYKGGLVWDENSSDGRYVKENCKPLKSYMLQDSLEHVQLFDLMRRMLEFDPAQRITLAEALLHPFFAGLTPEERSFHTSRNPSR
Chain of Serine/threonine-protein kinase PAK 3 (Homo sapiens) (O75914 whole entry, looked up): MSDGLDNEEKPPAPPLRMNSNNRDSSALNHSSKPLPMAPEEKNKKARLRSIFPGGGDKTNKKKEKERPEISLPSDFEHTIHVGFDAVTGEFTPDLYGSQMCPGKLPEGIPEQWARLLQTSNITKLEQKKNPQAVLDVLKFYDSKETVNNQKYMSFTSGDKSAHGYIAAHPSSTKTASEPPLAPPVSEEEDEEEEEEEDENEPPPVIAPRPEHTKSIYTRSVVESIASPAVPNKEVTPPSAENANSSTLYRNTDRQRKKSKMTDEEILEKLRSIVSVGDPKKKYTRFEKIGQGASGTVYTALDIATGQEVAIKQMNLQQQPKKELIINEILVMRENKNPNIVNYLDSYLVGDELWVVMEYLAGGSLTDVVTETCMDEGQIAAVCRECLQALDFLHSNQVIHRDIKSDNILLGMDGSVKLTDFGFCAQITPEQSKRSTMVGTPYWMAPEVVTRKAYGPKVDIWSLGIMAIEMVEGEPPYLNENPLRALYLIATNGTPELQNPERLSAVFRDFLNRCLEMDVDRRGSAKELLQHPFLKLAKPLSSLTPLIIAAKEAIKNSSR
Chain of Mitogen-activated protein kinase 14 (Q16539 whole entry): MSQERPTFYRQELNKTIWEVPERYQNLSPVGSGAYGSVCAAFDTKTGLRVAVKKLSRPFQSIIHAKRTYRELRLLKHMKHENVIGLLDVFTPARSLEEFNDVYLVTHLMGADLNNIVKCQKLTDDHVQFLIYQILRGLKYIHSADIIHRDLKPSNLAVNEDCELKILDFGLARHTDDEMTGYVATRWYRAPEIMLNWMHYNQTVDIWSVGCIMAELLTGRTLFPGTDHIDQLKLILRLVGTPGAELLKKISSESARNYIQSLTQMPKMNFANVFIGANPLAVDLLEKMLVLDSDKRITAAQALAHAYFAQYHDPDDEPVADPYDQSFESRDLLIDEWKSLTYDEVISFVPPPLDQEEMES
Chain of Dual specificity mitogen-activated protein kinase kinase 2 (Homo sapiens) (P36507 whole entry): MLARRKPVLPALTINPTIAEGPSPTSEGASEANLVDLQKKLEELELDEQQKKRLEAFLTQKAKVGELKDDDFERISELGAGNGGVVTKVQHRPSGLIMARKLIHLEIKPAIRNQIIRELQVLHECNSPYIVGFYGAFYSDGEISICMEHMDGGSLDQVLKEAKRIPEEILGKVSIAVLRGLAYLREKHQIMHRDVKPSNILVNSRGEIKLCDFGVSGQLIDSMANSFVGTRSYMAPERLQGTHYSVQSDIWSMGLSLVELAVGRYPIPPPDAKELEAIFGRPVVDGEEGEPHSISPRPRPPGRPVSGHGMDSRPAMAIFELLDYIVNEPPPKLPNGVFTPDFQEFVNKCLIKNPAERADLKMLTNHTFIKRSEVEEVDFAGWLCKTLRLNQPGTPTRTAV
Chain of Histone-lysine N-methyltransferase, H3 lysine-36 specific (Homo sapiens) (Q96L73 whole entry): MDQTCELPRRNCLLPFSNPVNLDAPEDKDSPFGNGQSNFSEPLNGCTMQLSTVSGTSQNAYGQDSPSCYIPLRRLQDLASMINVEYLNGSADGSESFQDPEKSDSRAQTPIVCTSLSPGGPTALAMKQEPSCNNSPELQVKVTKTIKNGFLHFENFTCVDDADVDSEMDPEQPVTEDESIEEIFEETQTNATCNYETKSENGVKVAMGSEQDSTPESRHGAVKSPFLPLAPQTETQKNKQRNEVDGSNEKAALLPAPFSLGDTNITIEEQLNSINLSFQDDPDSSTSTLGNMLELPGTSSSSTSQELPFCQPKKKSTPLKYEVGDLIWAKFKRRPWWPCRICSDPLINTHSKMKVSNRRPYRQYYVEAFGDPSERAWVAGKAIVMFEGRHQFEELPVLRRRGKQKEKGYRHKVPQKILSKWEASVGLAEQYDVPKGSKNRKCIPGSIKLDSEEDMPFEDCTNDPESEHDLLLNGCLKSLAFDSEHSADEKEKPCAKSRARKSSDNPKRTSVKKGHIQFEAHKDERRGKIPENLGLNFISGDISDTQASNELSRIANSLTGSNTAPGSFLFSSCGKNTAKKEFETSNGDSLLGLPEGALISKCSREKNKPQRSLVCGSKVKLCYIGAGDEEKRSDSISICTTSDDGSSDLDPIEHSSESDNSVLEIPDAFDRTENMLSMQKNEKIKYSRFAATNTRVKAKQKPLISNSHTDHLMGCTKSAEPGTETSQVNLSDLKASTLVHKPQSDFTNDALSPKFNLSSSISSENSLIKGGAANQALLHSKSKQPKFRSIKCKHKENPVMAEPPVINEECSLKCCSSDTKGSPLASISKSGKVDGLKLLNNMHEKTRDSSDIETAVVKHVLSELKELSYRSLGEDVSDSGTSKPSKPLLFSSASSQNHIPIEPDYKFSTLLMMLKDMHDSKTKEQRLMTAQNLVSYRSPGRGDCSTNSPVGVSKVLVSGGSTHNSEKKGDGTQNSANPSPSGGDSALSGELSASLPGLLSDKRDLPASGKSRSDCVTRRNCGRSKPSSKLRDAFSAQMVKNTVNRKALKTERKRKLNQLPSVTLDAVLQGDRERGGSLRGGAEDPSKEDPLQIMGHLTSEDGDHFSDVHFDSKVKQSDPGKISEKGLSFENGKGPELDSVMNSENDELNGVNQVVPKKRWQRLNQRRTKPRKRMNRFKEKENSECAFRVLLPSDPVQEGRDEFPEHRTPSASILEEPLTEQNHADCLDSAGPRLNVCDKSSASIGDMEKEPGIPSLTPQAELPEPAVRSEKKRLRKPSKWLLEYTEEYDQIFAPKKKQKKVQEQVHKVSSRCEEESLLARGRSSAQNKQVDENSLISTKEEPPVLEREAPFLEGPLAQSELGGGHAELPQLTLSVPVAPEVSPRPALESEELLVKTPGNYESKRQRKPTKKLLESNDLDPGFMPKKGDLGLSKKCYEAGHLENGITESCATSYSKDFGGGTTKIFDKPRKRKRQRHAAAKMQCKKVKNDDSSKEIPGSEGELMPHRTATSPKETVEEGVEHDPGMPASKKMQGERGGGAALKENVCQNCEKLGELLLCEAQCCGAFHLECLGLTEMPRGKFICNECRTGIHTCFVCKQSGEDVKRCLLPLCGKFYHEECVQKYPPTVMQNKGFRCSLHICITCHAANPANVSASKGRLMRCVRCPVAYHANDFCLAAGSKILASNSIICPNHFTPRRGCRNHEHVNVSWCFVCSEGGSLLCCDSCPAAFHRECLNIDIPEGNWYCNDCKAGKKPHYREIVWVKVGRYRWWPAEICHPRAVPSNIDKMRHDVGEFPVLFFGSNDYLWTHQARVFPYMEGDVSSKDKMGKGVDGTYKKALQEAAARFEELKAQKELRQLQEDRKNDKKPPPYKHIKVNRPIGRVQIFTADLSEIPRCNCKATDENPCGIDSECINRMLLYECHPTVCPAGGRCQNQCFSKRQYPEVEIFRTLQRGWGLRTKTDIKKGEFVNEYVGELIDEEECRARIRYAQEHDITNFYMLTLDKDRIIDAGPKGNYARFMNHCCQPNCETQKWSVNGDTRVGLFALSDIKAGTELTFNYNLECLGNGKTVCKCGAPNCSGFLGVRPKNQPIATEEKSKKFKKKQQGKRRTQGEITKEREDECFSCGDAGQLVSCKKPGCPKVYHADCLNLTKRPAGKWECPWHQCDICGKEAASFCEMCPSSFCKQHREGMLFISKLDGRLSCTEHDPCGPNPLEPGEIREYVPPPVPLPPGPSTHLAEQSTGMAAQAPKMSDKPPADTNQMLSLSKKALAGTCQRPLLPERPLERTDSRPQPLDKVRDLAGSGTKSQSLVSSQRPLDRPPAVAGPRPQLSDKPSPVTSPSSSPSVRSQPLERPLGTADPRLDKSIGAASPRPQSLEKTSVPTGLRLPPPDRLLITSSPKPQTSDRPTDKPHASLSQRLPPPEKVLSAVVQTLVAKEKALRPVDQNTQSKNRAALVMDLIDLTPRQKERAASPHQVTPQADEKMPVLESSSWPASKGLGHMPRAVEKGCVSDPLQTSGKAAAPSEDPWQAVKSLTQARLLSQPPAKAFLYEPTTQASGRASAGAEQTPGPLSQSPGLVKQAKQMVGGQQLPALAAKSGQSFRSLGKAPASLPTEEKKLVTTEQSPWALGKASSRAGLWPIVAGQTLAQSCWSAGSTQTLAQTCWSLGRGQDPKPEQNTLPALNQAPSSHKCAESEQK

As to `Cn1cc(-n2cnc3c(NCc4nc5cc(Cl)c(Cl)cc5[nH]4)nc(N4CCOCC4)nc32)cn1`, the % of control in [1] is -3.31%.
In test [2], `COCCN1CCC(c2cc(CN(C)C(=O)c3cccc(Oc4ccccc4)c3)ccn2)CC1` had a % activity of 90%.
In the case of `COCC(=O)NC/C=C/c1ccc2ncnc(Nc3ccc(Oc4ccc(C)nc4)c(C)c3)c2c1` [CP-724714], the % of control in test [3] was 88%.
In the case of `O=C(NOC[C@H](O)CO)c1ccc(F)c(F)c1Nc1ccc(I)cc1F`, the % of control in test [4] was found to be 54%.
Regarding `CNC(=O)Nc1ccc(-c2nc(N3CC4CCC(C3)O4)c3cnn(C4CCC5(CC4)OCCO5)c3n2)cc1`, the % of control in test [5] worked out at 99%.
In the case of `CC[C@@H]1[C@H](F)C(=O)N[C@@H]1COc1nccc2cc(C(N)=O)c(OC)cc12` [ZIMLOVISERTIB], the % of inhibition in test [6] was determined as 13.2%; in [7], 0.6%.
Consider `CN(C(=O)c1cnn2cccnc12)c1cc2c(cc1N1CCOCC1)C(=O)N(C[C@@H](F)C(C)(C)O)C2`, for which the dTM in [8] is -0.3 K.
Turning to `COc1cc(Nc2nc(C)cc(-c3cnn4nc(OC)ccc34)n2)cc(C(F)(F)F)c1`, the % of control was found to be 100% in test [9] and 58% in [10].
As for `CN(C)CCOc1ccc(-c2nc(-c3ccncc3)c(-c3ccc4c(c3)CC/C4=N\O)[nH]2)cc1`, the % of control in test [11] is 88%.
Take `Nc1cnc(N2CCc3cc(S(=O)(=O)Nc4c(F)cc(Cl)cc4F)cc(N4CCCC4=O)c32)nc1` [TP-020n]: the % of control in [12] came to 74%.
As for `COc1cc(N(C)c2ccnc3ccc(C(F)(F)F)cc23)cc(OC)c1OC`, the % binding in test [13] was found to be 91%.
